The values below come from PMC7949139, “The molecular basis of OH-PCB estrogen receptor activation” (The Journal of Biological Chemistry, 2021).

As usually defined, the EC50 is the concentration needed to bring the measured effect to its halfway point.

The test deals with estrogen receptor (ER) activation in (-) SULT1E1 control Ishikawa cells. The test can be described thus: Estrogen receptor activation (alkaline phosphatase activity), control strain. In kind it is cell-based. The conditions noted are these: Homo sapiens, Control cell line, OH-PCB titration at 10 nM E2 (footnote a), NE = No Effect, read-out: Ligand EC50, ER activation. As for the experimental part:
pcDNA 3.1 constructs harboring either the SULT1E1 WT or double mutant (F75A/F80A) coding regions were generated using Gibson Assembly ([74]). The vectors were linearized using BGIII. Ishikawa cells were grown at 37 °C ± 2 deg. C in growth medium (MEM media containing 10% v/v FBS). At confluence, the cells were washed (3×) with PBS media before coating with an Opti-MEM solution containing a linearized construct (50 ng μg^−1) and lipofectamine (2.5 units ml^−1). After 24 h at 37 °C ± 2 deg. C, cells were washed (3×) with PBS before adding growth medium containing neomycin (400 μg ml^−1) to select transfectants. Selective growth medium was replenished every 48 h until single colonies could be isolated (∼3–6 weeks). Single colonies were transferred using trypsin digest (0.05%) to 12-well plates and grown at 37 °C ± 2 deg. C to confluence for further experimentation and storage.
Transfected Ishikawa cells were grown at 37 °C ± 2 deg. C to 60 to 70% confluency in MEM containing 10% v/v FBS. Cells were then transferred to 96-well tissue culture plates and grown at 37 °C ± 2 deg. C to 80% confluency in MEM containing 10% v/v charcoal filtered FBS. The plate was then washed with PBS and grown at 37 °C ± 2 deg. C for 24 h in MEM without FBS. Estradiol (0–3.0 μM) and OH-PCB (0–1.0 μM) solubilized in neat DMSO were added and cells were incubated at 37 °C ± 2 deg. C for 5 days. The final concentrations of DMSO were ≤0.10%. Cells were then washed twice with PBS before adding pNpp (5.0 mM) in PBS ([75]). Following incubation with pNpp for 3 h at 25 °C ± 2 deg. C, wells were read at 405 nm using a Synergy HT BioTek Plate Reader.

Take `Oc1ccc(-c2c(Cl)cccc2Cl)cc1` [OH-PCB1, 4ʹ-OH-2,6-dichlorobiphenol]: the EC50 is > 1 µM.
